Structures can show the parent of a compound that is named as a salt. One block for each compound: values may come before it.
Experiments:
Type in all cases: physicochemical
[1] = HPLC-MS/MS analysis of 4-MMPPO content in tolperisone compositions; conditions: drug lot (API) used in the tablet
Protocol: Tolperisone compositions were obtained from various commercial sources and analyzed for 4-MMPPO content by HPLC-MS/MS.
All samples used in the analytical sequence were prepared for analysis as follows. Sample were homogenized if necessary (e.g., tablets) and weighed. For each tolperisone sample, approximately 20 mg of sample was added into a 20 mL flask. 20 mL of 50 mM HCl in MeOH was added to the flask, which was then placed in an ultrasonic bath for about 5 minutes. The contents of the flask were mixed on a vortexer for about 20 seconds. In instances in which the tolperisone sample had initially been in tablet form, the solution was then centrifuged at 4000 rpm for 2 minutes. 200 μL of the sample was then transferred into a small conical centrifuge vial. 20 μL of an internal standard solution containing deuterated 4-MMPPO, 200 μL of buffer at pH 1, and 0.4 mL of diisopropyl ether (DIPE) were added to the vial. The sample was then extracted by vortexing with a DVX-2500 multi-tube vortexer (2100 rpm) for about 2 minutes (cycle: 5 seconds run, 1 second pause time) and centrifugation (phase separation) at 4000 rpm for 2 minutes. 150 μL of 50 mM HCl in MeOH/DMSO (½) was added into empty designated conical autosampler vials. After centrifugation, 100 μL of supernatant was transferred into these conical autosampler vials. The vials were crimped and vortexed with a DVX-2500 multi-tube vortexer (2100 rpm) for about 1 minute. 7 μL of the prepared sample was then injected immediately into an HPLC-MS/MS system or the sample was stored at a temperature below −20° C. until analysis. The chromatography conditions and mass spectrometry parameters used for analysis of 4-MMPPO are shown below in Tables 1 and 2, respectively.
Lots of tolperisone were obtained from manufacturers A and B, as were the final manufactured tablet formulations. Analyses were carried out as described in Example 1 to determine 4-MMPPO levels in both drug lots and final manufactured formulations.

[2] = as above
[3] = Stability studies of 4-MMPPO / tolperisone HCl solutions (liquid-liquid extraction, HPLC-MS/MS)
Protocol: The analytical method employed utilized liquid-liquid extraction and HPLC separation on a C18-column with MS/MS detection and internal standardization.
Test solution: 50 mM HCl in methanol containing 40 mg per 200 μL of tolperisone HCl (containing 4-MMPPO as an impurity)
Samples were prepared for analysis generally as follows. 200 μL of IS working solution was added to the dry weighed bulk material or to the 20 μL aliquots. The samples were vortexed, followed by addition of 200 μL of buffer solution. 0.40 mL of DIPE (diisopropyl ether) was then added, followed by extraction via vortexing, and phase separation via centrifugation. About 250 μL of supernatant solution was then transferred into each 5 mL conical centrifuge vial, followed by addition of 200 μL of buffer solution. The major portion of tolperisone was then re-extracted into the watery phase by vortexing, followed by phase separation by centrifugation. 50 μL of centrifugation supernatant was then transferred to each auto sample vial containing injection solution (75 μL of 50 mM HCl in DMSO/MeOH 2/1). Samples were capped (crimped) and vortexed, followed by injection of 7 μL sample into the HPLC-MS/MS system for analysis.
During stability studies for a calibration range from 1-200 ppm, various solutions: a) 4-MMPPO in tolperisone free solution (“reference solution”), b) tolperisone HCl solution (default concentration of 10 mg/mL) without spiking of any 4-MMPPO (“test solution”), and c) tolperisone HCl solution (default concentration of 10 mg/mL) spiked with 4-MMPPO (“spiked test solution”) were assessed under the following storage conditions: (i) for three freeze thaw cycles prior to sample preparation for analysis, (ii) at bench top temperature for 4 hours, and (iii) at auto sampler conditions for 12 hours after sample preparation for analysis. […] Additionally, 4-MMPPO was stable at −70° C. for 2 months prior to sample preparation for analysis.
During stability studies for a concentration range from 0.05-25 ppm, various solutions: a) 4-MMPPO in tolperisone free solution (“reference solution”), b) tolperisone HCl solution (default concentration of 200 mg/mL) without spiking of any 4-MMPPO (“test solution”), and c) tolperisone HCl solution (default concentration of 200 mg/mL) spiked with 4-MMPPO (“spiked test solution”) were assessed under the following storage conditions: (i) at bench top temperature for 2 hours prior to sample preparation for analysis, and (ii) at auto sampler conditions for 14 hours after sample preparation for analysis.

[4] = calibration range 1-200 ppm, tolperisone HCl 10 mg/mL, each of: three freeze thaw cycles, bench top 4 hours, auto sampler 12 hours
[5] = range 0.05-25 ppm, tolperisone HCl 200 mg/mL, auto sampler conditions 14 hours after sample preparation

[4-MMPPO in Drug Lot or API], ppm [1]: 22 ppm
Structure (SMILES): Cc1ccc(C(=O)C(C)CN2CCCCC2)cc1 (centres unmarked) [SF0191, tolperisone]

4-MMPPO in recrystallized tolperisone ([2]; Example 2, single standard recrystallization from 2-butanone/isopropanol, dried at 45-85° C.): 0.14 % by weight
4-MMPPO in recrystallized tolperisone ([2]; Example 2, subsequent production batches): < 0.05%
4-MMPPO levels in the final recrystallized tolperisone product ([2]; Example 5, 1% (v/v) concentrated aqueous HCl added to the recrystallization mixture): below 6.6 ppm
stability during recrystallization ([2]; in the presence of acid): enhanced stability
Structure (SMILES): Cc1ccc(C(=O)C(C)CN2CCCCC2)cc1 (centres unmarked) [tolperisone, 2-methyl-1-(4-methylphenyl)-3-(-piperidinyl)-1-propanone]

[4-MMPPO in Drug Lot or API], ppm [1]: 14 ppm
Structure (SMILES): Cc1ccc(C(=O)C(C)CN2CCCCC2)cc1 (centres unmarked) [SD0108, tolperisone]

4-MMPPO concentration on storage of solution [3, 4]: constant 4-MMPPO concentration
4-MMPPO concentration on storage of solution [3, 5]: constant 4-MMPPO concentration
stability prior to sample preparation ([3]; −70° C. for 2 months): stable
Structure (SMILES): C=C(C)C(=O)c1ccc(C)cc1 [Sample 4-MMPPO, 2-methyl-1-(4-methylphenyl)-propenone]

[4-MMPPO in Drug Lot or API], ppm [1]: 39 ppm
Structure (SMILES): Cc1ccc(C(=O)C(C)CN2CCCCC2)cc1 (centres unmarked) [SB0068, tolperisone]

[4-MMPPO in Drug Lot or API], ppm [1]: 21 ppm
[4-MMPPO in Drug Lot or API], ppm ([1]; listed as SF0192): 21 ppm
Structure (SMILES): Cc1ccc(C(=O)C(C)CN2CCCCC2)cc1 (centres unmarked) [SFO192, tolperisone]

level of 4-MMPPO ([2]; recrystallized, washed with MTBE saturated with citric acid): below 1 ppm
4-MMPPO concentration on storage of solution [3, 4]: slight increase
4-MMPPO concentration on storage of solution [3, 5]: constant 4-MMPPO concentration
4-MMPPO concentration on storage of solution ([3]; range 0.05-25 ppm, tolperisone HCl 200 mg/mL, bench top temperature 2 hours prior to sample preparation): slight increase
Structure (SMILES): Cc1ccc(C(=O)C(C)CN2CCCCC2)cc1 (centres unmarked) [tolperisone HCl, tolperisone hydrochloride]

[4-MMPPO in Drug Lot or API], ppm [1]: 20 ppm
Structure (SMILES): Cc1ccc(C(=O)C(C)CN2CCCCC2)cc1 (centres unmarked) [SE0107, tolperisone]

From patent publication US20090253743A1, “COMPOSITIONS OF TOLPERISONE” (Avigen, Inc., priority 2007, published 2009)
